In PMC7985297 (Communications Biology, 2021):
“And” between values parts separate entries of the source, which are not always exact repeats. Equal entries are not always repeated. “Also recorded” adds a separate entry of the source.

Legend:
[1] = target: T1, Gal4-ARN fragments and Gal4-AR234–391 constructs (Homo sapiens, UniProt P10275, P259G); test: Transactivation assay with Gal4-ARN fragments and Gal4-AR234–391 proline to glycine mutants; format: cell-based; conditions: juglone 20 µM, IL-6 50 ng/mL, 24 h
T1 construct: expressed in transfected cells; host or cells: LNCaP
T1 sequence (P10275 236-393 P259G): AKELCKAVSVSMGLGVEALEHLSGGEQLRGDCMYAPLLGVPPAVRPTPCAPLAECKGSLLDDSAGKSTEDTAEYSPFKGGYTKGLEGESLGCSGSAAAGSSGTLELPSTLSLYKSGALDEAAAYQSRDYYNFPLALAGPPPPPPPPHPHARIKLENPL
Protocol: (§1) Fig. 3 Pin1 interacts with the AR NTD and regulates transactivation. a, b Transactivation assays performed in LNCaP cells expressing a vector encoding the human AR NTD fused to a Gal4 DNA-binding domain (Gal4-ARN). […] Input samples show Pin1 expression from lysates before the pull-down. i Co-immunoprecipitation assay showing AR protein co-immunoprecipitated with STAT3 from LNCaP cells incubated with EPI-002 (EPI, 35 μM), juglone (JUG, 30 μM), or vehicle (VEH, DMSO), and IL-6 (50 ng/mL) for 6 h. j, k Levels of phosphorylated MAPK (isoforms p44 and p42) and phosphorylated STAT3 (Tyr705 and Ser727) from LNCaP cells pre-treated with juglone (20 µM) and then stimulated with IL-6 (50 ng/mL) for 15 min. Error bars show the mean ± s.e.m. *P < 0.05, **P < 0.01, ***P < 0.001; ns not significant.

[2] = target: T2, Gal4-ARN fragments and Gal4-AR234–391 constructs (Homo sapiens, UniProt P10275, P311G); test: as above; format: cell-based; conditions: juglone 20 µM, IL-6 50 ng/mL, 24 h
T2 construct: expressed in transfected cells; host or cells: LNCaP
T2 sequence (P10275 236-393 P311G): as the sequence (P10275 236-393 P259G) above, with G24P, P76G counted along it
Protocol: as §1

[3] = test system: Gal4-ARN fragments and Gal4-AR234–391 constructs; test: as above; format: cell-based, human; conditions: juglone 20 µM, IL-6 50 ng/mL, 24 h
Protocol: as §1

[4] = target: T3, Gal4-ARN fragments and Gal4-AR234–391 constructs (Homo sapiens, UniProt P10275); test: as above; format: cell-based; conditions: juglone 20 µM, IL-6 50 ng/mL, 24 h
T3 construct: expressed in transfected cells; host or cells: LNCaP
T3 sequence (P10275 236-393): as the sequence (P10275 236-393 P259G) above, with G24P counted along it
Protocol: as §1

PC-3 cells = test: BrdU incorporation assay, PC-3; format: cell-based, human; conditions: ATRA 10 µM; for BrdU incorporation, PC-3 (Fig. 4c): − R1881, ENZ 10 µM, EPI-002 25 µM, JUG 20 µM
Protocol: Cells were treated with the inhibitors and stimulated with 1 nM of R1881 (+) or vehicle (−) for 24 to 72 h. Each data point represents the average from an independent experiment where the error bars show the mean ± s.e.m.
BrdU incorporation was determined with the colorimetric BrdU ELISA kit (Roche Diagnostics), according to the manufacturer’s protocol. In brief, cells were seeded in 96-well plates (LNCaP, 5000/well; LN95, 8000/well; PC-3 and DU145, 4000/wells) in media with reduced serum (0.5–1%). On the following day, cells were pre-treated with test compounds for 1 h and then incubated with 0.1 nM of R1881. After the indicated incubation times, cells were labeled with 10 μM of BrdU for 2 h and then fixed for the assay.

[5] = test system: phosphorylated MAPK (p44 and p42) and STAT3 (Tyr705 and Ser727); test: Western blot of phosphorylated MAPK and STAT3 after IL-6 in LNCaP cells; format: cell-based, human; conditions: juglone 20 µM, IL-6 50 ng/mL 15 min
Protocol: as §1

[6] = target: T4, recombinant human Pin1 protein (Homo sapiens, UniProt Q13526); test: Pin1 inhibition assay (fluorometric isomerase activity); format: biochemical; conditions: compounds 0–50 µM, 500 ng Pin1, Supplementary Fig. 2
T4 construct: purchased Abcam ab51230
T4 sequence (Q13526 whole entry): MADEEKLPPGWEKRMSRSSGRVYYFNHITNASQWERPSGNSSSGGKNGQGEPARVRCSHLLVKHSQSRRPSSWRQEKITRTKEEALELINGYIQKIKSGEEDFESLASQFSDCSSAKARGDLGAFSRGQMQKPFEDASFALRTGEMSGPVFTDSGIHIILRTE
Protocol: The effect of inhibitors on Pin1 isomerase activity was evaluated using a fluorometric Pin1 Assay Kit (AnaSpec, Fremont, California), according to the manufacturer’s protocol. […] Fluorescence intensity was measured with excitation wavelength at 490 nm and emission wavelength at 520 nm on an Infinite M1000 plate reader (Tecan, Männedorf, Switzerland) at 37 °C. Measurements were recorded every 5 min for up to 1 h.
Fluorescent polarization-based assay
the isomerase activity of Pin1. Each reaction contains 500 ng of
recombinant human Pin1 protein incubated with an inhibitor and a
fluorogenic substrate at 37°C. The uncatalyzed reaction represents
the intrinsic cis/trans isomerization of the substrate without Pin1
separate experiments with the correlation performed in duplicate
wells. RFU, relative fluorescent units.
(1 picture or pasted object on this page, not shown here)

YFP-AR fusion protein = target: T5, YFP-AR fusion protein (Homo sapiens, UniProt P10275); format: cell-based
T5 construct: expressed in transfected cells; host or cells: LNCaP
T5 sequence (P10275 whole entry, the tested form may be a part): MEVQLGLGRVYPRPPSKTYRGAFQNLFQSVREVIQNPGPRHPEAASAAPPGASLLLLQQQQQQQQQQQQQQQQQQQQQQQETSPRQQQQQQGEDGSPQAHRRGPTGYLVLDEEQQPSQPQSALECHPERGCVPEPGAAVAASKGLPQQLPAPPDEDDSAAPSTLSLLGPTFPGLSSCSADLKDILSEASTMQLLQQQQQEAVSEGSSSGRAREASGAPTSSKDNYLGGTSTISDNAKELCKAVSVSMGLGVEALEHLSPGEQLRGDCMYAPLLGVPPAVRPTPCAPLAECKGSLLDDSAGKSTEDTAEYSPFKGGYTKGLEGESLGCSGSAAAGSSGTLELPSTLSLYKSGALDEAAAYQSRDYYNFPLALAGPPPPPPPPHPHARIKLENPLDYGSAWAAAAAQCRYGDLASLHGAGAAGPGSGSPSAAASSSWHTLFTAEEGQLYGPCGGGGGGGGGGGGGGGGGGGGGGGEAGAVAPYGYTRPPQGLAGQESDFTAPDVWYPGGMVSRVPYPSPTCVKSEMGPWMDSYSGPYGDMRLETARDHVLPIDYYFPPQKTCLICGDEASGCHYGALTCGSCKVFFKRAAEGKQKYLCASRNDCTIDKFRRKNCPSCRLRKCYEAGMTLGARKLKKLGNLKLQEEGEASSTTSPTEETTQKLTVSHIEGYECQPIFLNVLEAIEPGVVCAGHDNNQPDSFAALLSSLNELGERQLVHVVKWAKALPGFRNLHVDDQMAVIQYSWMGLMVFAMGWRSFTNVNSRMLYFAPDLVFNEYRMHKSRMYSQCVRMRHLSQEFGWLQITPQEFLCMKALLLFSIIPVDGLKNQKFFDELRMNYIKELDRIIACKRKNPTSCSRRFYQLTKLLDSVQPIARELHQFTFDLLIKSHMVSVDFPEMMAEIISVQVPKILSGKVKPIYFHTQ
Protocol: Scores greater than 1 indicate nuclear localization. At least 50 cells were scored for each treatment.
AR translocation assays were performed by a modified protocol from Myung et al.[9]. Approximately 2.8 × 10^5 LNCaP cells were grown on coverslips in six-well plates and transiently transfected with 2 μg of an expression vector encoding a YFP-AR fusion protein. On the following day, cells were pre-treated with the indicated compounds for 1 h and stimulated with R1881 (1 nM) or a vehicle containing ethanol for 3 h. After incubating with compounds, cells were fixed with 4% paraformaldehyde, washed twice with PBS, and then counterstained with DAPI. Slides were examined on an Axiovert 200 Fluorescence Microscope (Zeiss, Oberkochen, Germany). The ratio of the YFP signal in the nucleus relative to the cytoplasm was quantified with ImageJ software. For each image, background fluorescence was measured and subtracted from experimental values. A total of at least 50 cells from nine images containing six or more cells per field were quantified to determine the nuclear to cytoplasmic YFP ratio for each treatment group.

serum PSA = test: Quantification of serum PSA (ELISA) in xenograft-bearing mice; format: in vivo; conditions: ATRA compared to placebo; on average; did not reach statistical significance
Protocol: Serum levels for total PSA were measured by a PSA ELISA kit (Anogen, Mississauga, ON) with a lower limit sensitivity of ~1 ng/mL. Whole blood was sampled from the tail vein on days indicated or by cardiac puncture immediately after euthanasia. The serum fraction was separated by centrifugation at 12,000 rpm for 3 min at room temperature and then stored at −20 °C until further analysis. Serum samples were diluted tenfold for the assay and were compared to calibration standards, according to the manufacturer’s protocol. The concentration of total PSA was determined by a VersaMax ELISA microplate reader by measuring absorbance at 450 nm with a reference wavelength of 650 nm.

LN95 cells [7] = test: Colony formation of LN95 cells; format: cell-based, human; conditions: LN95, ATRA 5 or 10 µM, EPI-002 25 µM, treated 24 hours then re-plated
Protocol: page 5: Supplementary Figure 5 a b […] (a) Representative images of colonies from LN95 cells after […] EPI-002. After treating with compounds for 24 hours, the media was removed, and 500 -1,000 cells were re-plated in 6-well plates. Colonies were fixed with 4% paraformaldehyde, stained with a 0.1% crystal violet solution, and then imaged. […]

LN95 cells [8] = test: Senescence-associated β-galactosidase staining, LN95; conditions: 3 days
Protocol: β-galactosidase activity at suboptimal pH (6.0) was used as a marker to detect cellular senescence[42]. Cells were seeded in four-well chamber slides at a density of 8000-10,000 cells. […] Three days later, the media was removed and cells were fixed with 2% formaldehyde/0.2% glutaraldehyde for 10 min at room temperature, washed with PBS, and then incubated with freshly prepared β-Gal staining solution (Cell Signaling) titrated to pH 6.0. Staining was optimal after incubating with the β-Gal solution at 37 °C for 16–18 h. After staining, the slides were washed twice with PBS, once with absolute methanol, and then mounted with 50% glycerol/PBS. The percentage of β-galactosidase-positive cells were counted with ImageJ using the Cell Counter plugin. A total of nine images containing 100–300 cells were scored to determine the percentages of positive cells.

Structure (SMILES)	transactivation, Gal4-AR234–391 P257G (Fig. 3f) [1]	transactivation, Gal4-AR234–391 P309G (Fig. 3f) [2]	effect on IL-6-induced transactivation of Gal4-AR234–391 proline to glycine mutants [3]	effect on IL-6-induced transactivation of Gal4-AR NTD fragments (construct named in the value) [3]	transactivation, Gal4DBD (Fig. 3f) [3]	transactivation, AR234-391 (Fig. 3e) [4]	BrdU incorporation, PC-3 (Fig. 4c) (PC-3 cells; listed as JUG)	effect on IL-6-induced phosphorylation of MAPK and STAT3 [5]	effect on isomerase activity of Pin1 [6]	YFP-AR localization, ratio of YFP intensity nucleus to cytosol (Fig. 2h), EtOH (YFP-AR fusion protein)	YFP-AR localization, ratio of YFP intensity nucleus to cytosol (Fig. 2h), R1881 (YFP-AR fusion protein)	effect on proliferation of PC-3 cells (PC-3 cells)	BrdU incorporation, PC-3 (Fig. 4c) (PC-3 cells)	reduction of PSA expression in sera, pilot study (serum PSA) [%]	effect on colony formation (LN95 cells [7])	effect on percentage of SA β-gal-positive cells (LN95 cells [8]; LN95, ATRA 10 µM)	SA β-gal-positive cells (LN95 cells [8]; LN95, ATRA 10 μM, EPI-002 25 μM) [%]
O=C1C=CC(=O)c2c(O)cccc21 [juglone]	5.034 and 6.44 and 8.824	4.289 and 4.331 and 7.708	inhibited the P257G and P309G mutants to levels that were comparable to wild-type; also recorded: had no effect on the P257G/P309G double mutant	inhibited transactivation of AR 234–391 and intact AR NTD (1–558); also recorded: only had a modest effect on AR 392–558; also recorded: did not inhibit the activity of Gal4DBD (empty vector) or AR 1–233	0.951 and 0.829 and 0.839	5.441 and 3.73 and 3.732	0.17 and 0.16 and 0.171 and 0.227	did not prevent phosphorylation of MAPK (isoforms p44 and p42) or STAT3 (Tyr705 and Ser727)	inhibited the isomerase activity of Pin1 in a dose-dependent manner	0.76 and 0.781 and 0.791	1.983 and 2.303 and 2.076						
CC1=C(/C=C/C(C)=C/C=C/C(C)=C/C(=O)O)C(C)(C)CCC1 [ATRA, all-trans retinoic acid]									inhibited the isomerase activity of Pin1 in a dose-dependent manner			did not impact the proliferation of either PC-3 or DU145 cells	1.204 and 0.885 and 0.987 and 1.277	27	inhibited the ability of LN95 cells to form colonies in a dose-dependent manner	significantly increased the percentage of SA β-gal-positive cells for LNCaP and LN95 cells	37
